Assay results reported in paper PMC9964746, “Mechanism of Action and Structure–Activity Relationships of Tetracyclic Small Molecules Acting as Universal Positive Allosteric Modulators of the Cholecystokinin Receptor” (Membranes, 2023).
Several values for one entry are separate records, joined by “and”; a condition that tells them apart may be missing. Equal values may be shown once.

Key:
Assay type in all cases: cell-based
[1] = molecular target: T1, vasopressin-2 receptor (AVP2R) (Homo sapiens, UniProt P30518); experiment: AVP2R cAMP HTRF accumulation assay; conditions: CHO-K1 AVP2R cells; for AVP2R PAM (cAMP) Score (activity score = normalized Emax × pEC50): PAM format; for EC50 / Emax: PAM format with vasopressin, original hits: agonist and PAM data combined, average ± SD
T1 construct: expressed in transfected cells; host or cells: CHO-K1 (PAM format); HEK-293 (agonist format)
Method: Possible off-target biological effects. […] Here, we tested them at the vasopressin-2 receptor (AVP2R), representing a class A GPCR structurally related to CCK1R, which is coupled to Gs. The activity at AVP2R was tested using AVP2R-overexpressing CHO-K1 (PAM format) or HEK-293 (agonist format) cells, stimulating the cells with vasopressin. Original hits were tested in both agonist and PAM formats. Since all recognized compound responses were present in both formats, we continued to screen analogs in only the PAM format (also able to capture agonist effects) in CHO-K1 AVP2R cells for potential enhanced sensitivity. The dose–response data sets for original hits were combined, as the PAM and agonist effects were indistinguishable. In brief, arginine vasopressin (AVP) orthosteric stimulator dilutions and ligand and compound dose–response titrations in DMSO were transferred onto a 1536-well plate (Corning #3725) using an Echo liquid handler (Labcyte). Thawed cryopreserved cell stocks were diluted in stimulation buffer consisting of HBSS (Hank’s Balanced Salt Solution with Ca^2+ and Mg^2+, Gibco #24020117), 5 mM HEPES (hydroxyethyl piperazineethanesulfonic acid), 0.5 mM IBMX (3-isobutyl-1-methylxanthine, Sigma-Aldrich), and 0.075% BSA (7.5% DTPA-purified bovine serum albumin, PerkinElmer). The resulting cell suspension was added to the microplate and incubated with test compounds at room temperature for 30 min. Then, the detection reagents from the Cisbio cAMP Gs Dynamic HTRF detection kit were added. The plate was kept at room temperature for 30 min and read on a PHERAstar FSX microplate reader. Dose–response curves were performed as 16-point 2-fold dilutions in duplicate in at least two independent experiments.

CCK1R [2] = molecular target: T2, CCK1R (Homo sapiens, UniProt P32238); experiment: IP-One accumulation TR-FRET assay, PAM format, HEK-293 CCK1R cells; parameters: expressed in transfected cells; host or cells: HEK-293; conditions: for Emax: HEK293, relative to CCK control; for Emax / CCK1R PAM (IP-One) Score (activity score = normalized Emax × pEC50) / EC50: HEK-293 CCK1R cells; for Emax / CCK1R PAM (IP-One) Score (activity score = normalized Emax × pEC50): PAM format; for Emax / EC50: average ± SD; for EC50: PAM format with EC20 CCK
T2 sequence (P32238 1-428): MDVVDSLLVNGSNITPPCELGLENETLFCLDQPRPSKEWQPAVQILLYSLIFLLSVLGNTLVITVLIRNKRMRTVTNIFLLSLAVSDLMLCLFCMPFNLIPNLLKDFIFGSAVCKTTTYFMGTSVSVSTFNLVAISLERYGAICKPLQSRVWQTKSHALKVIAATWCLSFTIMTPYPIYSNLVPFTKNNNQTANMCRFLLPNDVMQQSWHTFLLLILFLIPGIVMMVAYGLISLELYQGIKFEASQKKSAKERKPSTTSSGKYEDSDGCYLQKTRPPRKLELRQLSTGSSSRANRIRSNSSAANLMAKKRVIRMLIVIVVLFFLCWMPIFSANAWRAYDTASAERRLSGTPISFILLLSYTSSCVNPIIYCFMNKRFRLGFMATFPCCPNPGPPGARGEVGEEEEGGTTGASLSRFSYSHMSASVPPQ
Method: (§1) For structure–activity relationship studies, we performed myo-inositol-1-phosphate (IP-One) accumulation assays with TR-FRET technology applied to the HEK-293 cell line overexpressing CCK1Rs, as we had described in our high throughput screening effort. In brief, thawed cryopreserved cell stocks were re-suspended in IP-One assay media consisting of phenol-red free DMEM (Corning, Corning, NY, USA, #17-205-CV) with 10% FBS, 1% penicillin (10,000 units)/streptomycin (10 mg) (Pen/Strep, Thermo Fisher Scientific, Waltham, MA, USA, Gibco #15140122), and 1% L-glutamine (200 mM) (Gibco #25030081) and diluted to required cell densities. Then, the cell suspension was dispensed into a 1536-well tissue culture microplate (Corning, #3727), and the plate was incubated overnight at 37 °C and 5% CO^2. After 16–20 h, DMSO or compounds were added with an Echo liquid handler (Labcyte, San Jose, CA, USA), resulting in a top final compound concentration of 50 µM diluted 2-fold for 16-point dose–responses. For the positive allosteric modulator (PAM) format, orthosteric stimulator (CCK) dilutions for control wells were prepared in assay media containing 150 mM lithium chloride (LiCl, 50 mM final, Sigma-Aldrich, St Louis, MO, USA, #L7026). After a 30 min incubation of test compounds at 37 °C and 5% CO2, orthosteric stimulator dilutions (for PAM format) or equivalent dilutions of DMSO (for agonist format) were added to designated wells using BioRaptr (Beckman Coulter, Brea, CA, USA). In addition, CCK control ligand dilutions were included on each test plate. After that, the plate was incubated for 1 h at 37 °C and 5% CO^2 and equilibrated to room temperature. Detection reagents from the IP-One Gq detection kit from Cisbio (Cisbio US Inc., Bedford, MA, USA, #62IPAPEJ) were added, and after 1 h at RT, IP-One content was measured with a PHERAstar FSX microplate reader (BMG Labtech, Ortenberg, Germany). Control ligand dose–responses were analyzed using GraphPad Prism 9.3.1 (San Diego, CA, USA) to validate adequate control and test well concentrations for positive allosteric modulation (PAM) and agonist formats. Dose–response curves were performed as 16-point 2-fold dilutions in duplicates in at least three independent experiments. Large data sets were uploaded and analyzed with CBIS (Chemical and Biology Information System software, ChemInnovation Software, Inc., San Diego, CA, USA). Further data analysis for detailed SAR studies was conducted using the D360 software (Certara).
(§2) The potency and efficacy data for these compounds were used to calculate their activity scores using the following formula: Activity Score = normalized Emax × pEC50. Normalized Emax represents the efficacy of the compound as a fractional response relative to that of the CCK control ligand. pEC50 represents the positive logarithmic value of compound EC50 concentrations in (M).

CCK1R [3] = molecular target: T2, CCK1R; experiment: IP-One accumulation TR-FRET assay, agonist format, HEK-293 CCK1R cells; parameters: expressed in transfected cells; host or cells: HEK-293; conditions: for Emax: HEK293, relative to CCK control, average ± SD, read-out: CCK1R Ago (IP-One) Emax
Method: as §1, §2

T1 sequence (P30518 whole entry): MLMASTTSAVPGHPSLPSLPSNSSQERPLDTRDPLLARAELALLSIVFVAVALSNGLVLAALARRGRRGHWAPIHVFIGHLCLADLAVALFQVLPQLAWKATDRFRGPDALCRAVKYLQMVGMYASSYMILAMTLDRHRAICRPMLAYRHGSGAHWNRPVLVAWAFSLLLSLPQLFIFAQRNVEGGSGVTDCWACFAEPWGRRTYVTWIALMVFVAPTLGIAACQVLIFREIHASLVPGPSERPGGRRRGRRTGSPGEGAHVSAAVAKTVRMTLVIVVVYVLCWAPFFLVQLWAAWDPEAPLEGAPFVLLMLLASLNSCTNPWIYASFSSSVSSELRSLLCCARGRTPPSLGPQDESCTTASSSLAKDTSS

Compound	AVP2R PAM (cAMP) Score (activity score = normalized Emax × pEC50) [1]	EC50 [1]	Emax [1]	Emax (CCK1R [2])	CCK1R PAM (IP-One) Score (activity score = normalized Emax × pEC50) (CCK1R [2])	EC50 (CCK1R [2])	CCK1R Ago (IP-One) Score (activity score = normalized Emax × pEC50) (CCK1R [3])	Emax (CCK1R [3])	CCK1R IP-One activity (in words) (CCK1R [2]; PAM and agonist formats)
c1nc(N2CCNCC2)c2sc3nc(N4CCOCC4)c4c(c3c2n1)CCCC4 [CMP-3]	1.6 and 1.64	14.8 ± 10.3 µM	34 ± 5.3%	60 ± 23%	2.8 and 2.77	16.6 ± 15.9 µM	–	–	–
CCCCc1nc2sc3c(NCCCO)ncnc3c2c2c1CCC2 [CMP-5]	1.6 and 1.61	8.1 ± 8.5 µM	32 ± 11%	53 ± 6%	2.7 and 2.66	7.5 ± 2.9 µM	–	–	–
CCN(CC)CCCNc1ncnc2c1oc1nc(CC(C)C)c3c(c12)CCC3 [CMP-10]	2.2 and 2.15	21.7 ± 11.3 µM	46 ± 9%	51 ± 16%	2.3 and 2.28	22.5 ± 9 µM	–	–	–
CCCc1nc2oc3c(N4CCNCC4)ncnc3c2c2c1CCCC2 [CMP-12]	3.3 and 3.28	11.4 ± 3.6 µM	66 ± 3%	46 ± 7%	2.2 and 2.23	14.1 ± 4.3 µM	–	–	–
CN(C)CCCNc1nnnc2c1sc1nc(N3CCOCC3)c3c(c12)CCCC3 [CMP-17]	1.2	22.4 ± 9.2 µM	26 ± 1%	50 ± 32%	2.0 and 1.99	23 ± 17.9 µM	–	–	–
CN1CCN(c2ncnc3c2sc2nc(N4CCOCC4)c4c(c23)CCCC4)CC1 [CMP-19]	–	–	–	51 ± 43%	1.9 and 1.94	18.2 ± 8.6 µM	0	0%	–
CC(C)Cc1nc2oc3c(NCCN(C)C)ncnc3c2c2c1CCCC2 [CMP-25]	–	8.6 ± 5.4 µM	74 ± 12%	38 ± 11%	1.79	14.5 ± 5.3 µM	–	–	–
c1ccc(-c2nc3sc4c(NCCN5CCOCC5)ncnc4c3c3c2CCCC3)cc1 [CMP-26]	0.9 and 0.87	3.7 ± 0.5 µM	16 ± 4%	41 ± 15%	1.8 and 1.76	30.2 ± 11.2 µM	–	–	–
CCCc1nc2oc3c(N(C)CCO)ncnc3c2c2c1CCCC2 [CMP-39]	0	–	0%	–	–	–	0	0%	–
CN(C)CCCNc1ncnc2c1sc1nc(N3CCOCC3)c3c(c12)CCC3 [CMP-43]	–	–	–	–	–	–	0	0%	showed no agonist or PAM activity
CC(C)c1nc2sc3c(NCCN4CCOCC4)ncnc3c2c2c1CCCC2 [CMP-54]	2.0 and 1.96	26.2 ± 2.4 µM	43 ± 7%	–	–	–	0	–	–
CCCc1nc2sc3c(NCCCO)ncnc3c2c2c1CCC2 [CMP-56]	0	–	0%	–	–	–	0	0%	–
CCCCNc1ncnc2c1sc1nc(CCC)c3c(c12)CCCC3 [CMP-57]	0	–	0%	–	–	–	0	0%	–
CCCc1nc2oc3c(NCCCO)ncnc3c2c2c1CCCC2 [CMP-58]	0	–	0%	–	–	–	0	0%	–
CCCc1nc2oc3c(NCc4ccncc4)ncnc3c2c2c1CCCC2 [CMP-60]	0	–	0%	–	–	–	0	0%	–
Cc1nc2sc3c(NCCN4CCOCC4)ncnc3c2c2c1CCCC2 [CMP-61]	0	–	–	–	–	–	0	–	–
COc1ccc(CCNc2ncnc3c2oc2nc(C(C)C)c4c(c23)CCC4)cc1OC [CMP-62]	0	–	0%	–	–	–	0	0%	–
CC(C)c1nc2oc3c(N4CCC(Cc5ccccc5)CC4)ncnc3c2c2c1CCC2 [CMP-63]	0	–	0%	–	–	–	0	0%	–
